Source: patent US20060258630A1, “Method for the prevention and treatment of uveitis” (BioXell S.p.A., priority 2003, published 2006)
Entries after “also recorded” stand apart in the source; their conditions may differ.

How the values were obtained:
female C57BL/6 mice = test: Determination of maximum tolerated dose (MTD), serum calcium / hypercalcemia; details: for MTD (mice): oral daily for four days, highest dose without hypercalcemia (serum calcium>10.7 mg/dl); for MTD compared with the corresponding parent dihydroxy compound: (2) vs (1), (4) and (5) vs (3)
Description: (§1) The maximum tolerated dose of the vitamin D3 compounds of the invention were determined in eight week-old female C57BL/6 mice (3 mice/group) dosed orally (0.1 ml/mouse) with various concentrations of Vitamin D3 analogs daily for four days. Analogs were formulated in miglyol for a final concentration of 0.01, 0.03, 0.1 0.3, 1, 3, 10, 30, 100 and 300 μg/kg when given at 0.1 ml/mouse p.o. daily. Blood for serum calcium assay was drawn by tail bleed on day five, the final day of the study.

[1] = as above; details: female, C57BL/6, mouse, serum, po
Description: as §1

[2] = tested on: EAU-susceptible B10.RIII mice; test: Experimental autoimmune uveoretinitis (EAU) induced with IRBP in CFA; type: in vivo; details: for Prevention of EAU: administered from day −6 to 2
Text: EAU an autoimmune disease mediated by Th1-type uveitogenic CD4+ T cells serves as a model for human posterior uveitis. […] EAU development was followed by funduscopy and confirmed by histopathology on eyes collected 21 days after immunization.

[3] = tested on: primed lymph node cells (LN); test: In vitro assay of primed lymph node cells (LN) from EAU mice: proliferation, polarization, cytokine and chemokine release; type: cell-based; details: for Inhibition of specific T cell proliferation and T cell polarization: primed lymph node cells, FIG. 4
Text: It can be concluded that delayed hypersensitivity to IRBP in treated mice is correlated with disease severity. […] Preventive treatment remarkably diminished both IFN-gamma and IL-17 production by LN.
In consistency with disease amelioration, Ag driven chemokine release, such as MIP-1a, Rantes and TARC, is inhibited by Vitamin D3 derivatives as shown in FIG. 5. The further mechanism(s) involved in inhibition of EAU by VDR agonists are being investigated.

[4] = tested on: IFN-γ production in allogeneic PBMC co-culture (MLR); test: IFN-γ production by allogeneic T cell activation in the mixed leukocyte response (MLR), ELISA; type: cell-based; details: 120 h, 5 days, read-out: INF-γ IC50
Description: Immature dendritic cells. (DC) were prepared as described in Romani, N. et al. (Romani, N. et al. (1996) J. Immunol. Meth. 196:137). IFN-γ production by allogeneic T cell activation in the mixed leukocyte response (MLR) was determined as described in Penna, G., et al., J Immunol., 164: 2405-2411 (2000).
Briefly, peripheral blood mononuclear cells (PBMC) were separated from buffy coats by Ficoll gradient and the same number (3×10^5) of allogeneic PBMC from 2 different donors were co-cultured in 96-well flat-bottom plates. The vitamin D3 compounds were added to each of the cultures.

| Structure (SMILES) | MTD (mice) (female C57BL/6 mice) [µg/kg] | MTD at 4 days [1] [µg/kg] | IC50 [4] [nM] | other results |
| --- | --- | --- | --- | --- |
| C=C1/C(=C\C=C2/CCC[C@]3(C)C(C4(CCCC(C)(C)O)CC4)=CCC23)CC(OC(C)=O)C[C@@H]1OC(C)=O (stereo partly drawn) [(39), 1,3-Di-O-acetyl-1α,25-hydroxy-16-ene-20-cyclopropyl-cholecalciferol] | 3 |  |  |  |
| C=C1/C(=C\C=C2/CCC[C@]3(C)[C@@H]([C@H](C)CCCC(C)(C)O)CC[C@@H]23)C[C@@H](O)C[C@@H]1O [1,25(OH)2D3, calcitriol, reference compound] |  | 1 | 0.022 | Prevention of EAU ([2]; calcitriol 0.5 μg/kg orally): can prevent EAU; also recorded: effectively prevents EAU; Inhibition of specific T cell proliferation and T cell polarization [3]: potent |
| CC(=O)OC1C/C(=C/C=C2\CCC[C@]3(C)C(C(C)C/C=C\C(O)(C(F)(F)F)C(F)(F)F)=CCC23)C[C@@H](OC(C)=O)C1 (stereo partly drawn) [(2), 1,3-Di-O-acetyl-1,25-dihydroxy-16,23Z-diene-26,27-hexafluoro-19-nor-cholecalciferol] |  |  |  | MTD compared with the corresponding parent dihydroxy compound (female C57BL/6 mice): significantly higher |
| C=C1/C(=C\C=C2/CCC[C@]3(C)C(C(C)C/C=C/[C@@](C)(O)C(F)(F)F)=CCC23)CC(OC(C)=O)C[C@@H]1OC(C)=O (stereo partly drawn) [(16), 1,3-Di-O-acetyl-1,25-dihydroxy-16,23E-diene-25R,26-trifluoro-cholecalciferol] |  | 0.3 | 0.0513 |  |
| C=C1/C(=C\C=C2/CCC[C@@]3(C)C2CCC3C(C)CC#CC(C)(C)O)CC(OC(C)=O)C[C@@H]1OC(C)=O (stereo partly drawn) [(41), 1,3-Di-O-acetyl-1,25-dihydroxy-23-yne-cholecalciferol] | 1 |  |  |  |
| CC(=O)OC1C/C(=C/C=C2\CCC[C@]3(C)C(C(C)CC#CC(O)(C(F)(F)F)C(F)(F)F)=CCC23)C[C@@H](OC(C)=O)C1 (stereo partly drawn) [(4), 1,3-Di-O-acetyl-1,25-Dihydroxy-16-ene-23-yne-26,27-hexafluoro-19-nor-cholecalciferol] | 10 |  |  | MTD compared with the corresponding parent dihydroxy compound (female C57BL/6 mice): considerably-greater; also recorded: significantly higher |
| C=C1/C(=C\C=C2/CCC[C@]3(C)C(C(C)C/C=C/C(C)(C)O)=CCC23)CC(OC(C)=O)C[C@@H]1OC(C)=O (stereo partly drawn) [(9), 1,3-Di-O-acetyl-1,25-dihydroxy-16,23E-diene-cholecalciferol] |  | 3 | 0.013 |  |
| C=C1/C(=C\C=C2/CCC[C@@]3(C)C2CCC3C2(CC#CC(C)(C)O)CC2)CC(OC(C)=O)C[C@@H]1OC(C)=O (stereo partly drawn) [(29), 1,3-Di-O-acetyl-1,25-dihydroxy-20-cyclopropyl-23-yne-cholecalciferol] | 30 |  |  |  |
| CC(=O)OC1C/C(=C/C=C2\CCC[C@]3(C)C(C(C)CCCC(C)(C)O)=CCC23)C[C@@H](OC(C)=O)C1 (stereo partly drawn) [(18), 1,3-Di-O-acetyl-1,25-dihydroxy-16-ene-19-nor-cholecalciferol] |  | 3 | 0.003 |  |
| CC(=O)OC1C/C(=C/C=C2\CCC[C@@]3(C)C2CCC3C2(CC#CC(O)(C(F)(F)F)C(F)(F)F)CC2)C[C@@H](OC(C)=O)C1 (stereo partly drawn) [(27), 1,3-Di-O-acetyl-1,25-dihydroxy-20-cyclopropyl-23-yne-26,27-hexafluoro-19-nor-cholecalciferol] | 10 |  |  |  |
| CC(=O)OC1C/C(=C/C=C2\CCC[C@]3(C)C(C(C)CC#CC(OC(C)=O)(C(F)(F)F)C(F)(F)F)=CCC23)C[C@@H](OC(C)=O)C1 (stereo partly drawn) [(5), 1,3,25-Tri-O-acetyl-1,25-Dihydroxy-16-ene-23-yne-26,27-hexafluoro-19-nor-cholecalciferol] | 3 |  |  | MTD compared with the corresponding parent dihydroxy compound (female C57BL/6 mice): considerably-greater; also recorded: significantly higher |
| C=C1/C(=C\C=C2/CCC[C@]3(C)C(C(C)CC#CC(C)(C)O)=CCC23)CC(OC(C)=O)C[C@@H]1OC(C)=O (stereo partly drawn) [(7), 1,3-Di-O-acetyl-1,25-dihydroxy-16-ene-23-yne-cholecalciferol] | 10 |  |  |  |
| CC(=O)OC1C/C(=C/C=C2\CCC[C@]3(C)C(C(C)CC#CC(C)(C)O)=CCC23)C[C@@H](OC(C)=O)C1 (stereo partly drawn) [(20), 1,3-Di-O-Acetyl-1,25-dihydroxy-16-ene-23-yne-19-nor-cholecalciferol] |  | 30 | 0.025 |  |
| CC(=O)OC1C/C(=C/C=C2\CCC[C@@]3(C)C2CCC3C2(C/C=C\C(O)(C(F)(F)F)C(F)(F)F)CC2)C[C@@H](OC(C)=O)C1 (stereo partly drawn) [(33), 1,3-Di-O-acetyl-1,25-dihydroxy-20-cyclopropyl-23Z-ene-26,27-hexafluoro-19-nor-cholecalciferol] |  | 10 | 0.099 |  |
| CC(=O)OC1C/C(=C/C=C2\CCC[C@@]3(C)C2CCC3C2(CC#CC(OC(C)=O)(C(F)(F)F)C(F)(F)F)CC2)C[C@@H](OC(C)=O)C1 (stereo partly drawn) [(26), 1,3,25-Tri-O-acetyl-1,25-dihydroxy-20-cyclopropyl-23-yne-26,27-hexafluoro-19-nor-cholecalciferol] | 10 |  |  |  |
| C=C1/C(=C\C=C2/CCC[C@]3(C)C(C(C)CC#CC(OC(C)=O)(C(F)(F)F)C(F)(F)F)=CCC23)CC(OC(C)=O)C[C@@H]1OC(C)=O (stereo partly drawn) [(13), 1,3,25-Tri-O-acetyl-1,25-dihydroxy-16-ene-23-yne-26,27-hexafluoro-cholecalciferol] | 3 |  |  |  |
| CC(=O)OC1C/C(=C/C=C2\CCC[C@]3(C)C(C4(CCCC(C)(C)O)CC4)=CCC23)C[C@@H](OC(C)=O)C1 (stereo partly drawn) [(37), 1,3-Di-O-acetyl-1α,25-dihydroxy-16-ene-20-cyclopropyl-19-nor-cholecalciferol] | 10 |  |  |  |
| C=C1/C(=C\C=C2/CCC[C@]3(C)C(C(C)CCCC(C)(C)O)=CCC23)CC(OC(C)=O)C[C@@H]1OC(C)=O (stereo partly drawn) [(11), 1,3-Di-O-acetyl-1,25-dihydroxy-16-ene-cholecalciferol] |  | 1 | 0.036 |  |
| C=C1/C(=C\C=C2/CCC[C@@]3(C)C2CCC3C2(CCCC(C)(C)O)CC2)C[C@@H](OC(C)=O)C[C@@H]1OC(C)=O (stereo partly drawn) [Compound (35), 1,3-Di-O-acetyl-1,25-dihydroxy-20-cyclopropyl-cholecalciferol] |  | 30 | 0.0027 | Prevention of EAU ([2]; Compound A 10 μg/kg orally, listed as Compound A): can prevent EAU; also recorded: capable of preventing; Inhibition of EAU development, therapeutic treatment ([2]; treatment started 7 days after immunization, listed as Compound A): could inhibit EAU development; also recorded: treating EAU; Inhibition of specific T cell proliferation and T cell polarization [3]: potent; IFN-g production ([3]; therapeutic administration): not; IL-17 production ([3]; therapeutic administration): markedly inhibited |
| CC(=O)OC1C/C(=C/C=C2\CCC[C@@]3(C)C2CCC3C2(CC#CC(C)(C)O)CC2)C[C@@H](OC(C)=O)C1 (stereo partly drawn) [(24), 1,3-Di-O-acetyl-1,25-dihydroxy-20-cyclopropyl-23-yne-19-nor-cholecalciferol] |  | 100 | 0.802 |  |
| CC(=O)OC1C/C(=C/C=C2\CCC[C@@]3(C)C2CCC3C2(C/C=C/C(O)(C(F)(F)F)C(F)(F)F)CC2)C[C@@H](OC(C)=O)C1 (stereo partly drawn) [(31), 1,3-Di-O-acetyl-1,25-dihydroxy-20-cyclopropyl-23E-ene-26,27-hexafluoro-19-nor-cholecalciferol] | 0.3 |  |  |  |
| CCC(O)(C#CCC(C)C1=CCC2/C(=C/C=C3/CC(OC(C)=O)C[C@H](OC(C)=O)C3)CCC[C@]12C)CC (stereo partly drawn) [(22), 1,3-Di-O-acetyl-1,25-dihydroxy-16-ene-23-yne-26,27-bishomo-19-nor-cholecalciferol] | 100 |  |  |  |
| C=C1/C(=C\C=C2/CCC[C@]3(C)C(C(C)CC#CC(O)(C(F)(F)F)C(F)(F)F)=CCC23)CC(OC(C)=O)C[C@@H]1OC(C)=O (stereo partly drawn) [(14), 1,3-Di-O-acetyl-1,25-dihydroxy-16-ene-23-yne-26,27-hexafluoro-cholecalciferol] | 10 |  |  |  |
| CC(CC#CC(O)(C(F)(F)F)C(F)(F)F)C1=CCC2C(=CC=C3CC(O)CC(O)C3)CCCC12C (stereo not drawn) [(3), 1,25-dihydroxy-16-ene-23-yne-26,27-hexafluoro-19-nor-cholecalciferol, reference compound] | 0.3 |  |  |  |
